Tests used:
Format in all cases: functional
[1] = target: T1, Cdk-related protein kinase 6 (Plasmodium falciparum, UniProt O77239); assay: Final concentrations were 1.5 uM ATP, 5 mM MnCl2, and 15 ug/ml PK6 in a buffer of 100 mM Tris-HCl (pH 7.5). 50 ug/mL MBP was provided as the substrate; 10 uM staurosporine was used as a control inhibitor. Incubation time was 3 hours and 40 minutes.The catalytic activity of each kinase was considered proportional to ATP consumed, as determined from measurements of residual [ATP] with the luciferase-based reagent Kinase-Glo (Promega) following incubation. Luminescence (proportional to residual [ATP]) was measured on the plate readers FLx800 (BioTek Instruments, Winooski, VT, USA) and MicroBeta2.
T1 sequence (O77239 whole entry): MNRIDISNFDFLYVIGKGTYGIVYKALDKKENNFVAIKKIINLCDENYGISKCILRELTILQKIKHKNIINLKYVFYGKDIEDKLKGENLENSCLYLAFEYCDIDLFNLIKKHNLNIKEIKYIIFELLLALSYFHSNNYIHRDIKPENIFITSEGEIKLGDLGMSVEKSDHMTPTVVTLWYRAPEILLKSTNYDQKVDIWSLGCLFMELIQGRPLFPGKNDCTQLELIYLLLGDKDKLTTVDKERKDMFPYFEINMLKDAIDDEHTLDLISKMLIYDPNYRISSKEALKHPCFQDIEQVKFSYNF

[2] = target: T2, Putative uncharacterized protein pk7 (Plasmodium falciparum, UniProt O96214); assay: Final concentrations were 1 uM ATP, 2 mM DTT, 20 mM MgCl2, 2 mM MnCl2, 0.01% BSA, and 6 ug/ml PK7, in a buffer of 20 mM Tris-HCl (pH 7.5). The enzyme itself was the only substrate present (since autophosphorylation occurs); 100 uM 1NA-PP1 was used as a control inhibitor. Incubation time was 3 hours.
T2 sequence (O96214 whole entry): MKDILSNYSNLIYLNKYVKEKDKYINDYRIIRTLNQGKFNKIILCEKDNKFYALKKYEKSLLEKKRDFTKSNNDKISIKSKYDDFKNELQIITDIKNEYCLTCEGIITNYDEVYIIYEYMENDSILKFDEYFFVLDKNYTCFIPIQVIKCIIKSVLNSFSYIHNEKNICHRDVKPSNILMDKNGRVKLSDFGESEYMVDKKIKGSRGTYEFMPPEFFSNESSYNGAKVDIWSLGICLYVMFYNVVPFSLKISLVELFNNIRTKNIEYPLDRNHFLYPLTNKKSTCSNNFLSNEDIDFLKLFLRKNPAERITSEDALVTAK

[3] = target: T3, Mitogen-activated protein kinase (Plasmodium falciparum, UniProt Q25917); assay: Final concentrations were 1 uM ATP, 0.5 mM DTT, 1 mM MgCl2, 0.5 mg/mL BSA, and 10 ug/ml MAP2 in a buffer of 50 mM HEPES (pH 7.0). 0.5 mg/mL histone III-S served as the substrate (13); 100 uM AMP-PNP, an ATP analog, was used as a control inhibitor. Incubation time was 4 hours.
T3 sequence (Q25917 whole entry): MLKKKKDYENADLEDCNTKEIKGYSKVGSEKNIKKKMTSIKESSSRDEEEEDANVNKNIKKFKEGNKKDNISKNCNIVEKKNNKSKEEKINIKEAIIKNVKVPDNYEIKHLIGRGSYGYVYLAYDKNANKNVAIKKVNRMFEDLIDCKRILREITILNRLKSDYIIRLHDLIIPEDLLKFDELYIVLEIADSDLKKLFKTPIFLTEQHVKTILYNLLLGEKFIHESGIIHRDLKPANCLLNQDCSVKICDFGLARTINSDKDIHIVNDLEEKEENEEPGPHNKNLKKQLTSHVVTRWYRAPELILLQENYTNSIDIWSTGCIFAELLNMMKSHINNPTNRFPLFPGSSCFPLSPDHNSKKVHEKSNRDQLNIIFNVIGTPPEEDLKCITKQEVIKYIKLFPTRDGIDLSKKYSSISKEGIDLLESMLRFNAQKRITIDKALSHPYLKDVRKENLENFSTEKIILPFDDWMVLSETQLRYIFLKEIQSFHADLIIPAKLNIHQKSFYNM

[4] = target: Calcium-dependent protein kinase 1 (Plasmodium falciparum, UniProt P62344); assay: MMV: CDPK1 Protein kinase inhibition assay using recombinant PfCDPK1, syntide 2 peptide substrate, ATP and KinaseGlo to measure % inhibition at 1 uM MMV box compound.
[5] = target: T4, Calcium-dependent protein kinase 4 (Plasmodium falciparum (isolate 3D7), UniProt Q8IBS5); assay: MMV: CDPK4 Protein kinase inhibition assay using recombinant PfCDPK4, syntide2 peptide substrate, ATP and KinaseGlo to measure % inhibition at 1 uM MMV box compound.
T4 sequence (Q8IBS5 whole entry): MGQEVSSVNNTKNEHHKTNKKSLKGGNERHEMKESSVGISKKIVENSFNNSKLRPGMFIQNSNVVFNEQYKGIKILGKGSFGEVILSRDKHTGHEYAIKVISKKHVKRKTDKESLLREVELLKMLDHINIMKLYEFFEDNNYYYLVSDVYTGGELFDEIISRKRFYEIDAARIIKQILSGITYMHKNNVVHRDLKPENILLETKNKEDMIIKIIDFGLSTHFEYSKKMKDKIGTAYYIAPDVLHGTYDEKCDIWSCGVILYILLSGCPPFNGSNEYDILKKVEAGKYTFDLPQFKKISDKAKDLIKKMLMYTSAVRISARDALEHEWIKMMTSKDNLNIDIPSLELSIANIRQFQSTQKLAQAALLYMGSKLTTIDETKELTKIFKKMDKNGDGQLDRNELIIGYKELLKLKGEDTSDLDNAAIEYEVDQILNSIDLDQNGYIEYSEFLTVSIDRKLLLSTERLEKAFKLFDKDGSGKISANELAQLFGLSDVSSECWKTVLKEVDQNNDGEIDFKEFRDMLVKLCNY

Proline--tRNA ligase = target: T5, Proline--tRNA ligase (Plasmodium falciparum (isolate 3D7), UniProt Q8I5R7); assay: MMV: ProRS recombinant Plasmodium falciparum Prolyl-tRNA-synthetase, assay with yeast tRNA, ATP, and proline and 3 uM MMV malaria box compound, assay read out with kinase glo as % inhibition.
T5 sequence (Q8I5R7 whole entry): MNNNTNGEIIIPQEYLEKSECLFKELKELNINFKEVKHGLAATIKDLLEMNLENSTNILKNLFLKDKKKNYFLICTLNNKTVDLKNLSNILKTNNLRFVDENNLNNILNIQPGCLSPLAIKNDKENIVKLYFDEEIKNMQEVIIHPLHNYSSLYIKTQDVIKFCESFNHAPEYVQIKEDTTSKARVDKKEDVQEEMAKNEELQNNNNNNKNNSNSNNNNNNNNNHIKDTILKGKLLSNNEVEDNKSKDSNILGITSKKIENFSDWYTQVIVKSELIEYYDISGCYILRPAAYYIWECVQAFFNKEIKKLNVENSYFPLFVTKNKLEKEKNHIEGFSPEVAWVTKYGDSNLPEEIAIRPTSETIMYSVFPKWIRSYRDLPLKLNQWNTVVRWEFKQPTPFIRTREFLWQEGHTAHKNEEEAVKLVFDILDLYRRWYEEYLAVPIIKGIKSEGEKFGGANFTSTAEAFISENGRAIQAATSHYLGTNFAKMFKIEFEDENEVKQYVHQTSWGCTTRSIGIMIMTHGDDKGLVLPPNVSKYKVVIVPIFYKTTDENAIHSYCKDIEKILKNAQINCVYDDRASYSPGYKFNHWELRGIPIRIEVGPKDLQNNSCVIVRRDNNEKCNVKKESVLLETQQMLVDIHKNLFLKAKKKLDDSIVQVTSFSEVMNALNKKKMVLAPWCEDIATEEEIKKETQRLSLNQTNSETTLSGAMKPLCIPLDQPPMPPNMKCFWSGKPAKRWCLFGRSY

Lysine--tRNA ligase = Lysine--tRNA ligase (Plasmodium falciparum (isolate 3D7), UniProt Q8IDJ8); assay: MMV: KRS recombinant Plasmodium falciparum Lysyl-tRNA-synthetase, assay with yeast tRNA, ATP, and lysine and 3 uM MMV malaria box compound, assay read out with kinase glo as % inhibition.
Sequence of Lysine--tRNA ligase (Q8IDJ8 whole entry): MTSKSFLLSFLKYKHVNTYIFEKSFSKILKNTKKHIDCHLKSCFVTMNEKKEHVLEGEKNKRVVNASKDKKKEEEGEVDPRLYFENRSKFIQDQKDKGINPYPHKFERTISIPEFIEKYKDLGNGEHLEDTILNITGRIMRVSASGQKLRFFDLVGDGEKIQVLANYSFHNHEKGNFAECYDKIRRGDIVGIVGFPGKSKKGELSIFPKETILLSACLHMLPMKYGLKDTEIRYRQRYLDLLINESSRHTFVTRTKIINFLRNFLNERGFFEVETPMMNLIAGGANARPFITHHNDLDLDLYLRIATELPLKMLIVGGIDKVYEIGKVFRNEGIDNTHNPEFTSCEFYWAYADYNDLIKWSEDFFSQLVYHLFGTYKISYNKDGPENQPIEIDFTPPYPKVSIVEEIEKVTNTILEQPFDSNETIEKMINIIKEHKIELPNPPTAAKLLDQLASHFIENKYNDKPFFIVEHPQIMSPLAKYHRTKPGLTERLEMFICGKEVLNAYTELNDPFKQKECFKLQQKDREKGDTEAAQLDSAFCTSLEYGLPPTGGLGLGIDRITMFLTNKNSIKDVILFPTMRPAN

Sequence of Calcium-dependent protein kinase 1 (P62344 whole entry): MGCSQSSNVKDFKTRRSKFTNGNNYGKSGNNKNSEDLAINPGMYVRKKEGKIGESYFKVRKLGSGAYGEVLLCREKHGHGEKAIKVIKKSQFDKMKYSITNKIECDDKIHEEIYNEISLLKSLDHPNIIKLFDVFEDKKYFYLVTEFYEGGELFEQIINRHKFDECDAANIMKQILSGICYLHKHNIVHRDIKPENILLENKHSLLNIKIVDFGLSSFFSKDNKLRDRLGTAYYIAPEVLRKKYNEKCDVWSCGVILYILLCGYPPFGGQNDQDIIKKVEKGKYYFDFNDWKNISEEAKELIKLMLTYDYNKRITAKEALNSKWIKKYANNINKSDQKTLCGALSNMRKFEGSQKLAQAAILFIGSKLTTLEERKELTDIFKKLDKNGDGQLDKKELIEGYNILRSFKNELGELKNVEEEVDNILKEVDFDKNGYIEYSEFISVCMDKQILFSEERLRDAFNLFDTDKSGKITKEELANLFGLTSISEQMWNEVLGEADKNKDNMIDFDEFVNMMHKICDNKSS

| SMILES | IC50 [1] [µM] | IC50 [2] [µM] | IC50 [3] [µM] | IC50 [4] [µM] | IC50 [5] [µM] | IC50 (Proline--tRNA ligase) [µM] | IC50 (Lysine--tRNA ligase) [µM] |
| --- | --- | --- | --- | --- | --- | --- | --- |
| CCOc1c(Cl)cc(CNCC(O)c2ccccc2)cc1OC (configuration not stated) | > 1 | > 1 | > 1 | > 1 | > 1 | > 2.5 | > 2.5 |
| OC(CNCC1CCCO1)Cn1c2ccc(Cl)cc2c2cc(Cl)ccc21 (configuration not stated) | > 1 | > 1 | > 1 | > 1 | > 1 | > 2.5 | > 2.5 |
| COc1ccc2nc(C)cc(Nc3ccccc3O)c2c1 | > 1 | > 1 | > 1 | > 1 | > 1 | > 2.5 | > 2.5 |
| CCn1nc(-c2ccc(C(=O)OC)cc2)nc2c(=O)n(C)c(=O)nc1-2 | > 1 | > 1 | > 1 | > 1 | > 1 | > 2.5 | > 2.5 |
| CC1(c2ccccc2)Nc2ccccc2-c2nc3ccccc3n21 (configuration not stated) | > 1 | > 1 | > 1 | > 1 | > 1 | > 2.5 | > 2.5 |
| CC(C)(C)CC(C)(C)NCC(O)COc1ccc(Cl)cc1Cl (configuration not stated) | > 1 | > 1 | > 1 | > 1 | > 1 | > 2.5 | > 2.5 |
| O=C(Nc1ccc(Br)cc1)Nc1cccc(Cl)c1 | > 1 | > 1 | > 1 | > 1 | > 1 | > 2.5 | > 2.5 |
| CCC(O)c1ccc(Br)cc1NC(=O)c1cccc(Cl)c1 (configuration not stated) | > 1 | > 1 | > 1 | > 1 | > 1 | > 2.5 | > 2.5 |
| Cc1cc(Nc2cccc(F)c2)nc(NCc2ccccc2)n1 | > 1 | > 1 | > 1 | > 1 | > 1 | > 2.5 | > 2.5 |
| COCCn1c(C)nc2ccccc2c1=O | > 1 | > 1 | > 1 | > 1 | > 1 | > 2.5 | > 2.5 |
| O=C(Nc1cccc(-c2nc3ccccc3[nH]2)c1)c1cccc(NC(=O)c2ccco2)c1 | > 1 | > 1 | > 1 | > 1 | > 1 | > 2.5 | > 2.5 |
